Key:
[1] = tested on: p-RSK (Thr359) in colo205 cells; experiment: p-RSK (Thr359) Acumen Assay in Colo205; format: cell-based; conditions: Homo sapiens, COLO 205, 1 hour compound incubation, read-out: Example 19 IC50
Procedure: Example 19: p-RSK (Thr359) Acumen Assay in Colo205
• Phospho-p90RSK (Thr359) (D1E9) Rabbit mAb: cell signal, #8753 • Alexa Fluor® 488 donkey anti-rabbit IgG: invitrogen, #A-21206 • Propidium Iodide: Sigma, #p4170 • 4% Paraformaldehyde: SCRC, #DF021 • 10% Triton X-100: PIERCE, #28314 • 96-well plate (black with clear bottom): BD, #354640 • Acumen® eX3 (A Multilaser Microplate Cytometer For Enhanced High Content Screening): TTP LabTech 3. Acumen Assay Protocol • Seed 4000 cells in 100 μl 10% FBS/well into 96-well plate, incubate at 37° C., 5% CO2, overnight. • Dilute the compound to 3, 1, 0.33, 0.11, 0.037, 0.012, 0.004, 0.001 μM, keeping the DMSO concentration at 5%. Add 10 μl of diluted compound per well and incubate at 37° C., 5% CO2 for 1 hour. • Add 100 μl of 4% pre-warmed Paraformaldehyde (2% final), and incubate for 45 min at room temperature. • Remove paraformaldehyde solutions. Add 100 μl of ice-cold 0.1% Triton to fixed cells at room temperature for 30 min. • Wash twice with 150 μl PBS and incubate with 100 μl blocking buffer (1% BSA, in PBS) for 2˜3 hours at room temperature, seal the plate. • Wash once with PBS and incubate with 35 μl p-RSK (Thr359) (1:1000 dilution) overnight at 4° C. Seal the plate. • Wash twice with PBS and incubate for 1.5 hours at room temperature with 35 μl of Alexa Fluor® 488 donkey anti-rabbit IgG at a 1:1,000 dilution in antibody dilution buffer (0.1% BSA, in PBS). Cover plate in foil to keep out of light. • Wash twice with 150 μl PBS. Add 35 μl of 1.5 μM Propidium Iodide stock to each well to determine cell number, seal the plate. • Incubate at room temperature for 30 min. Load the plate into the Acumen Explorer and scan with the appropriate instrument settings. 4. Data Analysis
[formula] Note: • Percentagecompound well represents the positive percentage of cells treated by compound. • Percentagemin well represents the positive percentage of cells treated with 3 uM GDC0994. • Percentagemax well represents the positive percentage of cells without compounds treatment. 5. IC50 Value: determine IC50 with add-in software for Microsoft Excel, XLfit™ (version 2.0) from ID Business Solutions (Guildford, UK)

[2] = biological target: T1, MAPK1(ERK2) enzyme (Homo sapiens, UniProt P28482); experiment: Z-Lyte Kinase Assay of ERK2; format: biochemical; conditions: read-out: Example 18 IC50
T1 construct: purchased Invitrogen PV3313
Procedure: Example 18: Z-Lyte Kinase Assay of ERK2
1. Materials and Reagents:
2. Reaction Steps: Plate Map
3. Solution Preparation • 1) 1.33× Kinase Buffer: Dilute 5× Kinase Buffer to 1.33× with ddH2O • 2) 4× Test Compounds: Serially dilute the test compounds to 4 folds of the concentrations desired, keeping the DMSO concentration at 8%. The final concentrations are 1, 0.33, 0.11, 0.037, 0.012, 0.004, 0.0014, 0.00046 μM, and the final concentration of DMSO is 2%. • 3) Kinase/Peptide Mixture (P/K solution): Prepare Kinase/Peptide Mixture by diluting the kinase to 0.6 μg/ml and the Z-LYTE™ Ser/Thr3 peptide to 4 μM in 1.33× Kinase Buffer. Mix gently by pipetting. • 4) Phospho-peptide Solution (PP solution): Add 0.4 μl of Z-LYTE™ Ser/Thr3 Phospho-peptide to 99.6 μl of 1.33× Kinase Buffer. • 5) ATP Solution: Prepare ATP Solution by diluting the 10 mM of ATP in 1.33× Kinase Buffer to 100 μM. • 6) Development Solution: Dilute Development Reagent A with Development Buffer as 1:1024. 4. Reaction • 1) Kinase reaction (10 μl of Volume) • a. In a 384-well plate, add 2.5 μl of 4× test Cpds to each well except C1, C2, C3 wells Add 2.5 μl of 8% DMSO to C1, C2, C3 wells • b. Put the plate on ice • c. Add 5 μl of P/K mixture to each test Cpd wells and C1, C2 wells • d. Add 5 μl of PP Solution to C3 well • e. Add 2.5 μl of 1.33× kinase buffer to C1 and C3 wells • f. Add 2.5 μl of 4×ATP Solution to each test Cpd wells and C2 well, respectively. Shake the plate for 30 Sec and centrifuge (1500 rpm, 1 min) • g. Seal the plate to protect from the light and incubate the plate for 1 hour at RT (25-30° C.) • 2) Development reaction • a. Add 5 μl of the Development solution to all wells • b. Shake the plate for 30 sec and centrifuge (1500 rpm, 1 min) • c. Seal the plate to protect from the light and incubate the plate for 1 hour at RT (25-30° C.) • 3) Stop and read • a. Add 5 μl of the Stop reagent to all wells • b. Shake the plate for 30 sec and centrifuge (1500 rpm, 1 min) • c. Measure the value of coumarin (Ex400 nm, Em445 nm) and fluorescein (Ex400 nm, Em520 nm), respectively. 5. Data Analysis Emission Ratio(ER)=Coumarin Emission (445 nm)/Fluorescein Emission (520 nm) % Phosphorylation=1−[ER×C3520nm−C3445nm]/[(C1445nm−C3445nm)+ER×(C3520nm−C1520nm)] Inhibition rate (IR)=1−% Photest Cpd% PhoC2 6. IC50 Value: determine IC50 with add-in software for Microsoft Excel, XLfit™ (version 2.0) from ID Business Solutions (Guildford, UK)

T1 sequence (P28482 whole entry): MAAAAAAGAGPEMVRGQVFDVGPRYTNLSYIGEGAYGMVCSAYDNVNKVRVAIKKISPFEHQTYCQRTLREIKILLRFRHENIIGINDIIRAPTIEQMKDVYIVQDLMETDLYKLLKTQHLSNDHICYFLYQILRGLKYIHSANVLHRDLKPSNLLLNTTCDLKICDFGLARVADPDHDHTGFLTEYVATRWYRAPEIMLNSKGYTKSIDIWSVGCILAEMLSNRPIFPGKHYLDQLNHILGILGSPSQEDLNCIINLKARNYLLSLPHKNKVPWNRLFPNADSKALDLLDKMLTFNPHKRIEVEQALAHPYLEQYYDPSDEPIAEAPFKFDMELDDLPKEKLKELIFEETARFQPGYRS

Row | SMILES | IC50 [1] | IC50 [2]
1 | Cn1nccc1Nc1nccc(-c2cc3n(c2)C[C@H](CF)n2c-3nnc2C(F)(F)n2cc(Cl)cn2)n1 [Compound 111] | > 100 nM | ≤ 5 nM
2 | Cc1cnc(Nc2ccnn2C)cc1-c1cc2n(c1)C[C@H](F)Cn1c-2nnc1C(F)(F)C(F)(F)F [Compound 75] | > 100 nM | ≤ 5 nM
3 | Cn1nccc1Nc1cc(-c2cc3n(c2)CCCn2c(Cn4cc(Cl)cn4)nnc2-3)c(Cl)cn1 [Compound 73] | > 100 nM | ≤ 5 nM
4 | Cn1nccc1Nc1cc(-c2cc3n(c2)CCCn2c-3nnc2C2(C(F)(F)F)CC2)c(Cl)cn1 [Compound 21] | > 100 nM | ≤ 5 nM
5 | Cn1nccc1Nc1cc(-c2cc3n(c2)C[C@H](CF)n2c-3nnc2C(F)(F)c2ncco2)c(Cl)cn1 [Compound 110] | > 100 nM | ≤ 5 nM
6 | Cc1cnc(Nc2ncnn2C)cc1-c1cc2n(c1)C[C@H](CF)n1c-2nnc1C(F)(F)c1ccccc1Cl [Compound 173] | > 100 nM | 5 to 10 nM
7 | C[C@H]1Cn2cc(-c3ccnc(Nc4ccnn4C(F)F)n3)nc2-c2nnc(C(F)(F)c3ccccc3Cl)n21 [Compound 227] | ≤ 100 nM | ≤ 5 nM
8 | Cc1cnccc1Nc1ncc(C)c(-c2cc3n(c2)CCCn2c-3nnc2C2(C(F)(F)F)CCC2)n1 [Compound 286] | ≤ 100 nM | 5 to 10 nM
9 | Cc1cnc(Nc2ccnn2C)cc1-c1cc2n(c1)C[C@H](CF)n1c-2nnc1C(F)(F)c1ncccc1Cl [Compound 174] | ≤ 100 nM | ≤ 5 nM
10 | Cc1cnc(Nc2ccnn2C)cc1-c1cc2n(c1)CC(F)(F)Cn1c-2nnc1C1(C(F)(F)F)CCC1 [Compound 117] | ≤ 100 nM | ≤ 5 nM
11 | Cn1nccc1Nc1nccc(-c2cc3n(c2)CCCn2c(CCc4ccccc4F)nnc2-3)n1 [Compound 1, 4-(3-(2-fluorophenethyl)-6,7-dihydro-5H-pyrrolo[1,2-a][1,2,4]triazolo[3,4-c][1,4]diazepin-10-yl)-N-(1-methyl-1H-pyrazol-5-yl)pyrimidin-2-amine] | > 100 nM | ≤ 5 nM
12 | Cn1nccc1Nc1nccc(-c2cc3c4nnc(Cc5cccc(F)c5)n4ccn3c2)n1 [Compound 282] | > 100 nM | ≤ 5 nM
13 | C[C@H]1Cn2cc(-c3ccnc(Nc4ccnn4C)c3)cc2-c2nnc(C(F)(F)c3ccccc3F)n21 [Compound 69] | > 100 nM | ≤ 5 nM
14 | Cc1cnc(Nc2ccnn2C)nc1-c1cc2n(c1)C[C@H](CF)n1c-2nnc1C(F)(F)c1c(F)cccc1F [Compound 189] | ≤ 100 nM | 5 to 10 nM
15 | Cn1nccc1Nc1cc(-c2cc3n(c2)C(C(F)(F)F)Cn2c-3nnc2C(F)(F)C(F)F)c(Cl)cn1 (centres unmarked) [Compound 270] | ≤ 100 nM | > 10 nM
16 | COc1ccccc1C(F)(F)c1nnc2n1[C@@H](CF)Cn1cc(-c3nc(Nc4ccnn4C)ncc3C)cc1-2 [Compound 167] | ≤ 100 nM | ≤ 5 nM

Results, then the molecule that gave them:

Row | IC50 [1] | IC50 [2] | SMILES
17 | ≤ 100 nM | ≤ 5 nM | Cc1cnc(Nc2ccnn2C)cc1-c1cc2n(c1)CCCn1c-2nnc1C1(C(F)(F)F)CCC1 [Compound 237]
18 | ≤ 100 nM | > 10 nM | Cn1nccc1Nc1cc(-c2cc3n(c2)CCCn2c(COc4ccccc4F)nnc2-3)c(Cl)cn1 [Compound 38]
19 | ≤ 100 nM | 5 to 10 nM | COCC1Cn2cc(-c3cc(Nc4ccnn4C)ncc3Cl)cc2-c2nnc(C3(C(F)(F)F)CCC3)n2C1 (centres unmarked) [Compound 300, 5-chloro-4-(6-(methoxymethyl)-3-(1-(trifluoromethyl)cyclobutyl)-6,7-dihydro-5H-pyrrolo[1,2-a][1,2,4]triazolo[3,4-c][1,4]diazepin-10-yl)-N-(1-methyl-1H-pyrazol-5-yl)pyridin-2-amine]
20 | ≤ 100 nM | 5 to 10 nM | Cn1nccc1Nc1ncc(F)c(-c2cc3n(c2)C[C@H](CF)n2c-3nnc2C(F)(F)c2ccccc2Cl)n1 [Compound 193]
21 | ≤ 100 nM | ≤ 5 nM | [2H]C([2H])([2H])n1nccc1Nc1cc(-c2cc3n(c2)CCCn2c-3nnc2C2(C(F)(F)F)CCC2)c(C)cn1 [Compound 240]
22 | ≤ 100 nM | ≤ 5 nM | Cn1nccc1Nc1nccc(-c2cc3n(c2)C[C@H](CF)n2c-3nnc2C(F)(F)c2ccccc2F)n1 [Compound 100]
23 | ≤ 100 nM | ≤ 5 nM | Cc1cnc(Nc2ccnn2C)cc1-c1cc2n(c1)C[C@H](CF)n1c-2nnc1C(F)(F)c1nonc1C [Compound 101]
24 | ≤ 100 nM | ≤ 5 nM | Cn1nccc1Nc1cc(-c2cc3n(c2)C[C@H](CF)n2c-3nnc2C(F)(F)n2cc(F)cn2)c(Cl)cn1 [Compound 163]
25 | ≤ 100 nM | ≤ 5 nM | Cc1c(-c2ccnc(Nc3ccnn3C)n2)cn2c1-c1nnc(COc3ccccc3F)n1CCC2 [Compound 16]
26 | ≤ 100 nM | ≤ 5 nM | Cc1cnc(Nc2ccnn2C(F)F)nc1-c1cn2c(n1)-c1nnc(C(F)(F)c3ccccc3F)n1[C@@H](C)C2 [Compound 226]
27 | ≤ 100 nM | > 10 nM | Cc1cnc(Nc2ccnn2C)nc1-c1cc2n(c1)C[C@H](C(F)F)n1c-2nnc1C(F)(F)c1ccccc1Cl [Compound 205]
28 | ≤ 100 nM | ≤ 5 nM | Cc1cnc(Nc2ccnn2C)cc1-c1cc2n(c1)C[C@H](CF)n1c-2nnc1C(F)(F)n1ccc(Cl)n1 [Compound 152]
29 | ≤ 100 nM | ≤ 5 nM | Cc1cnc(Nc2ccnn2C)cc1-c1cc2n(c1)C(C)CCn1c-2nnc1C1(C(F)(F)F)CCC1 (centres unmarked) [Compound 77]
30 | ≤ 100 nM | ≤ 5 nM | Cn1nccc1Nc1cc(-c2cc3n(c2)CCCn2c(Cc4ccccc4C#N)nnc2-3)c(Cl)cn1 [Compound 27]
31 | ≤ 100 nM | ≤ 5 nM | Cn1nccc1Nc1cc(-c2cc3n(c2)C[C@@H](F)Cn2c-3nnc2C2(C(F)(F)F)CCC2)c(Cl)cn1 [Compound 122]
32 | ≤ 100 nM | 5 to 10 nM | Cn1nccc1Nc1cc(-c2cc3n(c2)C[C@H](CF)n2c-3nnc2C(F)(F)c2ccccc2Cl)ccn1 [Compound 138]
33 | ≤ 100 nM | 5 to 10 nM | Cc1nonc1C(F)(F)c1nnc2n1[C@@H](C)Cn1cc(-c3cc(Nc4ccnn4C)ncc3Cl)cc1-2 [Compound 103]
34 | ≤ 100 nM | ≤ 5 nM | Cc1cnc(Nc2ccnn2C(F)F)cc1-c1cc2n(c1)CCCn1c-2nnc1C1(C(F)(F)F)CCC1 [Compound 263]

From patent US12492210B2, “Tricyclic compounds and their use” (HUTCHISON MEDIPHARMA LIMITED, priority 2019, dated 2025)
